Experimental data as given in US20230123334A1, “AMINO LIPID COMPOUND, PREPARATION METHOD THEREFOR, AND APPLICATION THEREOF” (SHENZHEN SHENXIN BIOTECHNOLOGY CO., LTD., priority 2020, published 2023).

Tested on: HEK293 cells
Assay: Preliminary screening as mRNA vectors, EGFP mRNA transfection of HEK293 cells
Format: cell-based
Settings: EGFP mRNA 50 ng per well, 96-well plates; percentage of GFP fluorescent cells relative to total number of cells (Hoechst)
In short: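 HEK293 cells in DMEM plus 10% FBS transfected in 96-well format with 50 ng EGFP mRNA per well; Lipofectamine2000 served as positive control. Read-out is the percentage of GFP-fluorescent cells among total cells, counted by Hoechst nuclear stain.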

Row | SMILES | Absolute mRNA transfection efficiency in HEK293 cells [%]
1 | CCCCCCCCCCCCCCCNc1nc(NCCN2CCN(C)CC2)nc(SCCCCCC)n1 [Compound D5S6N15] | 16.4
2 | CCCCCCCCCCCCN(CCCCCCCCCCCC)c1nc(NCC2CCN(C)CC2)nc(SCCCCCCCCCCC)n1 [D10S11^2N12] | 0.0
3 | CCCCCCCCCCCCCCCCNc1nc(NCCCN2CCN(C)CC2)nc(SCCCCCCCCCCCCCCC)n1 [Compound D9S15N16] | 2.7
4 | CCCCCCCCCSc1nc(NCCCCCCCC)nc(NCCN(CC)CC)n1 [Compound D7S9N8] | 11.1
5 | CCCCCCCCCSc1nc(NCCCCCCCC)nc(NCCCN2CCN(C)CC2)n1 [Compound D9S9N8] | 9.2
6 | CCCCCCCCCCCSc1nc(NCCCCCC)nc(NCCN(C)C)n1 [Compound D1S11N6] | 4.4
7 | CCCCCCCCCCCCCCSc1nc(NCCN2CCCCC2)nc(SCCCCCCC)n1 [Compound D4S7S14] | 8.3
8 | CCCCCCCCCCCCCCCNc1nc(NCCCN2CCOCC2)nc(SCCCCCCCCCC)n1 [Compound D8S10N15] | 0.2
9 | CCCCCCCCCCCCCCCCSc1nc(NCCCCCCCCCCCCC)nc(NCC2CCN(C)CC2)n1 [Compound D10S16N13] | 7.1
10 | CCCCCCCCCCCCCCCCCCNc1nc(NCCN2CCCCC2)nc(SCCCCCCCCCCCCCCCC)n1 [Compound D4S16N18] | 6.3
11 | CCCCCCCCCCCCN(CCCCCCCCCCCC)c1nc(NCCN2CCN(C)CC2)nc(SCCCCCCC)n1 [D5S7^2N12] | 0.2
12 | CCCCCCCCCCCCCCCNc1nc(NCCN2CCCCC2)nc(SCCCCCCC)n1 [Compound D4S7N15] | 2.6
13 | CCCCCCCCCCCCCCCCNc1nc(NCCN2CCCC2)nc(SCCCCCCCCCCCC)n1 [Compound D3S12N16] | 1.9
14 | CCCCCCCCCNc1nc(NCCCN2CCOCC2)nc(SCCCCCCCC)n1 [Compound D8S8N9] | 3.5
15 | CCCCCCCCCCCCCCSc1nc(NCCCCCCC)nc(NCCN(CC)CC)n1 [Compound D7S14N7] | 36.3
16 | CCCCCCCCCCCCCCCNc1nc(NCCCN2CCOCC2)nc(SCCCCCCCC)n1 [Compound D8S8N15] | 4.6
17 | CCCCCCCCCNc1nc(NCCCN(C)C)nc(SCCCCCC)n1 [Compound D6S6N9] | 0.3
18 | CCCCCCCCCCCCCNc1nc(NCCCN2CCN(C)CC2)nc(SCCCCCCC)n1 [Compound D9S7N13] | 60.4
19 | CCCCCCCCCCCCCCCSc1nc(NCCCCCCCCC)nc(NCC2CCN(C)CC2)n1 [Compound D10S15N9] | 12.8
20 | CCCCCCCCCNc1nc(NCCN2CCN(C)CC2)nc(SCCCCCC)n1 [Compound D5S6N9] | 2.0
21 | CCCCCCCCCCCCCCCSc1nc(NCCCCCCCCCCCC)nc(NCCN2CCN(C)CC2)n1 [Compound D5S15N12] | 4.3
22 | CCCCCCCCCCCCCCCCCCNc1nc(NCCN(C)C)nc(SCCCCCCCCCCCC)n1 [Compound D1S12N18] | 0.0
23 | CCCCCCCCCCCCSc1nc(NCCCCCCC)nc(NCCN(CC)CC)n1 [Compound D7S12N7] | 13.1
24 | CCCCCCCCCCCCCCCCCCNc1nc(NCCN2CCN(C)CC2)nc(SCCCCCCCC)n1 [Compound D5S8N18] | 29.9
25 | CCCCCCCCCCCCN(CCCCCCCCCCCC)c1nc(NCCCN(C)C)nc(SCCCCCCC)n1 [D6S7^2N12] | 0.9

Row | SMILES | Absolute mRNA transfection efficiency in HEK293 cells [%]
26 | CCCCCCCCCCCCCCCCNc1nc(NCCN2CCOCC2)nc(SCCCCCCC)n1 [Compound D2S7N16] | 2.6
27 | CCCCCCCCCCCCCCCCSc1nc(NCCCCCCCCCCC)nc(NCCN(C)C)n1 [Compound D1S16N11] | 19.8
28 | CCCCCCCCCCCCCCCCSc1nc(NCCCCCCCCC)nc(NCCCN2CCN(C)CC2)n1 [Compound D9S16N9] | 54.4
29 | CCCCCCCCCCCCCNc1nc(NCCN(C)C)nc(SCCCCCCCC)n1 [Compound D1S8N13] | 15.5
30 | CCCCCCCCCCCCCCCCCCSc1nc(NCCCN2CCOCC2)nc(SCCCCCC)n1 [Compound D8S6S18] | 12.6
31 | CCCCCCCCCCCNc1nc(NCC2CCN(C)CC2)nc(SCCCCCCCCC)n1 [Compound D10S9N11] | 66.0
32 | CCCCCCCCCCCCSc1nc(NCCN2CCCC2)nc(SCCCCCCCC)n1 [Compound D3S8S12] | 3.5
33 | CCCCCCCCCCCCCCSc1nc(NCCN2CCCCC2)nc(SCCCCCC)n1 [Compound D4S6S14] | 5.3
34 | CCCCCCCCCCCCSc1nc(NCCCCCCCCCCC)nc(NCCN2CCCCC2)n1 [Compound D4S12N11] | 3.7
35 | CCCCCCCCCCCSc1nc(NCCCCCC)nc(NCCCN(C)C)n1 [Compound D6S11N6] | 1.7
36 | CCCCCCCCCSc1nc(NCCCN2CCN(C)CC2)nc(SCCCCCCC)n1 [Compound D9S7S9] | 35.3
37 | CCCCCCCCCCCCCCCCNc1nc(NCCCN2CCN(C)CC2)nc(SCCCCCCCCCC)n1 [Compound D9S10N16] | 13.6
38 | CCCCCCCCCCCCCCCCNc1nc(NCC2CCN(C)CC2)nc(SCCCCCCCCCC)n1 [Compound D10S10N16] | 15.4
39 | CCCCCCCCCCCCCCCSc1nc(NCCCCCCCCC)nc(NCCN2CCOCC2)n1 [Compound D2S15N9] | 1.1
40 | CCCCCCCCCCCCNc1nc(NCCN(CC)CC)nc(SCCCCCCCCC)n1 [Compound D7S9N12] | 25.6
41 | CCCCCCCCCSc1nc(NCCCCCC)nc(NCCN(C)C)n1 [Compound D1S9N6] | 1.1
42 | CCCCCCCCCCCCCCCCCCNc1nc(NCCN(CC)CC)nc(SCCCCCCCC)n1 [Compound D7S8N18] | 12.8
43 | CCCCCCCCCNc1nc(NCC2CCN(C)CC2)nc(SCCCCCCCC)n1 [Compound D10S8N9] | 30.2
44 | CCCCCCCCCCCNc1nc(NCCN2CCCCC2)nc(SCCCCCCCCCC)n1 [Compound D4S10N11] | 0.8
45 | CCCCCCCCCSc1nc(NCCCN(C)C)nc(SCCCCCC)n1 [Compound D6S6S9] | 10.6
46 | CCCCCCCCCSc1nc(NCCN2CCCC2)nc(SCCCCCC)n1 [Compound D3S6S9] | 2.6
47 | CCCCCCCCCCCCNc1nc(NCCN(C)C)nc(SCCCCCCCCCC)n1 [Compound D1S10N12] | 2.4
48 | CCCCCCCCCCCCCCCCSc1nc(NCCCCCCCCCCCCCCC)nc(NCCN2CCCC2)n1 [Compound D3S16N15] | 0.0
49 | CCCCCCCCCCCCCCCCCCNc1nc(NCCN(CC)CC)nc(SCCCCCCCCCCCC)n1 [Compound D7S12N18] | 1.1
